biological target: T1, human PAR4 (Homo sapiens, UniProt Q96RI0); experiment: PAR4 FLIPR assay: antagonism of agonist-peptide-induced calcium mobilization in PAR4-expressing HEK293 cells; format: cell-based; conditions: H-Ala-Phe(4-F)-[…]NH2-induced intracellular calcium mobilization, 11-point curves
T1 construct: expressed in transfected cells; host or cells: HEK293 PAR4 Clone 1.2A (BMS Arctic ID 383940)
T1 sequence (Q96RI0 18-385): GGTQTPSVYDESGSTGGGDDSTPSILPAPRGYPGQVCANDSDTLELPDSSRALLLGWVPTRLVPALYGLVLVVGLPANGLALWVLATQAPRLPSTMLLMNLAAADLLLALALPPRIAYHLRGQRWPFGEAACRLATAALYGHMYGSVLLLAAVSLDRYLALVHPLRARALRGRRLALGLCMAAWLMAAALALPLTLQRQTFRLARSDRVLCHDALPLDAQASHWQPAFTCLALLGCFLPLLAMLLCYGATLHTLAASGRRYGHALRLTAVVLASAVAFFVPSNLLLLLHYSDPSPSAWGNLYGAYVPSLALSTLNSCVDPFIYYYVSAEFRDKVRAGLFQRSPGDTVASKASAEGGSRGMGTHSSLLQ

| IC50 | Compound |
| --- | --- |
| 0.9 nM | COCc1cnc2c(-c3nc4c(C)cc(OCCNS(=O)(=O)c5ccc(F)cc5)cc4s3)cc(F)cc2n1 [Example 207, 4-fluoro-N-(2-((2-(7-fluoro-2-(methoxymethyl)quinoxalin-5-yl)-4-methylbenzo[d]thiazol-6-yl)oxy)ethyl)benzenesulfonamide] |
| 1.1 nM | COCc1cnc2c(-c3nc4c(C)cc(OC)cc4s3)cc(C(F)(F)F)cc2n1 [Example 208, 6-methoxy-2-(2-(methoxymethyl)-7-(trifluoromethyl)quinoxalin-5-yl)-4-methylbenzo[d]thiazole] |
| 1.1 nM | COCc1cnc2c(-c3nc4c(C)cc(OCCNS(=O)(=O)c5ccc(F)cc5)cc4s3)cc(C(F)(F)F)cc2n1 [Example 209, 4-fluoro-N-(2-((2-(2-(methoxymethyl)-7-(trifluoromethyl)quinoxalin-5-yl)-4-methylbenzo[d]thiazol-6-yl)oxy)ethyl)benzenesulfonamide] |
| 0.3 nM | COCc1cnc2c(-c3nc4c(Cl)cc(OC)cc4s3)cc(Cl)cc2n1 [Example 210, 4-chloro-2-(7-chloro-2-(methoxymethyl)quinoxalin-5-yl)-6-methoxybenzo[d]thiazole] |
| 21 nM | COc1cc(C)c2nc(-c3cc(C#N)cc4nc(OC)cnc34)sc2c1 [Example 211, 3-methoxy-8-(6-methoxy-4-methylbenzo[d]thiazol-2-yl)quinoxaline-6-carbonitrile] |
| 2.4 nM | COCc1cnc2c(-c3nc4c(Cl)cc(OC)cc4s3)cccc2n1 [Example 212, 4-chloro-6-methoxy-2-(2-(methoxymethyl)quinoxalin-5-yl)benzo[d]thiazole] |
| 5.8 nM | COCc1cnc2c(-c3nc4c(C)cc(OCCNS(=O)(=O)c5ccc(F)cc5)cc4s3)cccc2n1 [Example 213, 4-fluoro-N-(2-((2-(2-(methoxymethyl)quinoxalin-5-yl)-4-methylbenzo[d]thiazol-6-yl)oxy)ethyl) benzenesulfonamide] |
| 4.3 nM | COc1cnc2c(-c3nc4c(F)c(F)c(OC)cc4s3)cc(Cl)cc2n1 [Example 214, 2-(7-chloro-2-methoxyquinoxalin-5-yl)-4,5-difluoro-6-methoxybenzo[d]thiazole] |
| 2.9 nM | COc1cnc2c(-c3nc4c(Cl)c(F)c(OC)cc4s3)cc(Cl)cc2n1 [Example 215, 4-chloro-2-(7-chloro-2-methoxyquinoxalin-5-yl)-5-fluoro-6-methoxybenzo[d]thiazole] |
| 160 nM | COc1cnc2c(-c3nc4c(Cl)c(F)c(OC)cc4s3)c(C)c(C)cc2n1 [Example 216, 4-chloro-5-fluoro-6-methoxy-2-(2-methoxy-6,7-dimethylquinoxalin-5-yl)benzo[d] thiazole] |
| 18 nM | COc1cnc2c(-c3nc4c(F)c(F)c(OC)cc4s3)cc(C#N)cc2n1 [Example 217, 8-(4,5-difluoro-6-methoxybenzo[d]thiazol-2-yl)-3-methoxyquinoxaline-6-carbonitrile] |
| 2.5 nM | COc1cnc2c(-c3nc4c(Cl)c(F)c(OC)cc4s3)cc(CO)cc2n1 [Example 218, (8-(4-chloro-5-fluoro-6-methoxybenzo[d]thiazol-2-yl)-3-methoxyquinoxalin-6-yl)methanol] |
| 5.5 nM | COc1cnc2c(-c3nc4c(C)c(C)c(OC)cc4s3)cc(CO)cc2n1 [Example 219, (3-methoxy-8-(6-methoxy-4,5-dimethylbenzo [d]thiazol-2-yl)quinoxalin-6-yl)methanol] |
| 2.6 nM | COc1cnc2c(-c3nc4c(F)c(F)c(OC)cc4s3)cc(CO)cc2n1 [Example 220, (8-(4,5-difluoro-6-methoxybenzo[d]thiazol-2-yl)-3-methoxyquinoxalin-6-yl)methanol] |
| 21 nM | COc1cnc2c(-c3nc4cc(F)c(OC)cc4s3)cc(C#N)cc2n1 [Example 221, 8-(5-fluoro-6-methoxybenzo[d]thiazol-2-yl)-3-methoxyquinoxaline-6-carbonitrile] |
| 1 nM | COc1cnc2c(-c3nc4cc(F)c(OC)cc4s3)cc(CO)cc2n1 [Example 222, (8-(5-fluoro-6-methoxybenzo [d]thiazol-2-yl)-3-methoxyquinoxalin-6-yl)methanol] |
| 10 nM | COc1cnc2c(-c3nc4c(C)cc(OC)nc4s3)cc(CO)cc2n1 [Example 223, (3-methoxy-8-(5-methoxy-7-methylthiazolo[5,4-b]pyridin-2-yl)quinoxalin-6-yl)methanol] |

| IC50 | Compound |
| --- | --- |
| 15 nM | COc1cnc2c(-c3nc4c(Cl)c(F)c(OC)cc4s3)cc(CO)c(F)c2n1 [Example 224, (8-(4-chloro-5-fluoro-6-methoxybenzo[d]thiazol-2-yl)-5-fluoro-3-methoxyquinoxalin-6-yl)methanol] |
| 54 nM | COCc1cnc2c(-c3nc4c(C)cc(OCCNS(=O)(=O)c5ccc(F)cc5)cc4s3)cc(C(N)=O)cc2n1 [Example 225, 8-(6-(2-(4-fluorophenylsulfonamido)ethoxy)-4-methylbenzo[d]thiazol-2-yl)-3-(methoxymethyl)quinoxaline-6-carboxamide] |
| 160 nM | COCc1cnc2c(-c3nc4c(C)cc(OCCNS(=O)(=O)c5ccc(F)cc5)cc4s3)cc(C(=O)N3CCCCC3)cc2n1 [Example 227, 4-fluoro-N-(2-((2-(2-(methoxymethyl)-7-(piperidine-1-carbonyl)quinoxalin-5-yl)-4-methylbenzo[d]thiazol-6-yl)oxy)ethyl)benzenesulfonamide] |
| 890 nM | COCCNC(=O)c1cc(-c2nc3c(C)cc(OCCNS(=O)(=O)c4ccc(F)cc4)cc3s2)c2ncc(COC)nc2c1 [Example 228, 8-(6-(2-(4-fluorophenylsulfonamido)ethoxy)-4-methylbenzo[d]thiazol-2-yl)-N-(2-methoxyethyl)-3-(methoxymethyl)quinoxaline-6-carboxamide] |
| 3.9 nM | C=Cc1cc(-c2nc3c(C)cc(OCCNS(=O)(=O)c4ccc(F)cc4)cc3s2)c2ncc(OC)nc2c1 [Example 229, 4-fluoro-N-(2-((2-(2-methoxy-7-vinylquinoxalin-5-yl)-4-methylbenzo[d]thiazol-6-yl)oxy)ethyl)benzenesulfonamide] |
| 2.2 nM | C#Cc1cc(-c2nc3c(C)cc(OCCNS(=O)(=O)c4ccc(F)cc4)cc3s2)c2ncc(OC)nc2c1 [Example 230, N-(2-((2-(7-ethynyl-2-methoxyquinoxalin-5-yl)-4-methylbenzo[d]thiazol-6-yl)oxy)ethyl)-4-fluorobenzenesulfonamide] |
| 1 nM | COc1cnc2c(-c3nc4c(C)cc(OCCNS(=O)(=O)c5ccc(F)cc5)cc4s3)cc(C#N)cc2n1 [Example 231, N-(2-((2-(7-cyano-2-methoxyquinoxalin-5-yl)-4-methylbenzo[d]thiazol-6-yl)oxy)ethyl)-4-fluorobenzenesulfonamide] |
| 0.7 nM | COCc1cnc2c(-c3nc4c(C)cc(OCCNS(=O)(=O)c5ccc(F)cc5)cc4s3)cc(C#N)cc2n1 [Example 232, N-(2-((2-(7-cyano-2-(methoxymethyl)quinoxalin-5-yl)-4-methylbenzo[d]thiazol-6-yl)oxy)ethyl)-4-fluorobenzenesulfonamide] |
| 0.4 nM | COCc1cnc2c(-c3nc4c(C)cc(OC)cc4s3)cc(C#N)cc2n1 [Example 233, 8-(6-methoxy-4-methylbenzo[d]thiazol-2-yl)-3-(methoxymethyl)quinoxaline-6-carbonitrile] |
| 1.4 nM | C=Cc1cc(-c2nc3c(C)cc(OCCNS(=O)(=O)c4ccc(F)cc4)cc3s2)c2ncc(COC)nc2c1 [Example 234, 4-fluoro-N-(2-((2-(2-(methoxymethyl)-7-vinylquinoxalin-5-yl)-4-methylbenzo[d]thiazol-6-yl)oxy)ethyl)benzenesulfonamide] |
| 2.2 nM | COc1cnc2c(-c3nc4c(C)cc(OCCNS(=O)(=O)c5ccc(F)cc5)cc4s3)cc(CO)cc2n1 [Example 235, 4-fluoro-N-(2-((2-(7-(hydroxymethyl)-2-methoxyquinoxalin-5-yl)-4-methylbenzo[d]thiazol-6-yl)oxy)ethyl)benzenesulfonamide] |
| 140 nM | COc1cnc2c(-c3nc4c(C)cc(OCCNS(=O)(=O)c5ccc(F)cc5)cc4s3)cc(C(O)CO)cc2n1 (stereo not drawn) [Example 236, N-(2-((2-(7-(1,2-dihydroxyethyl)-2-methoxyquinoxalin-5-yl)-4-methylbenzo[d]thiazol-6-yl)oxy)ethyl)-4-fluorobenzenesulfonamide] |
| 170 nM | COc1cnc2c(-c3nc4c(C)cc(OCCNS(=O)(=O)c5ccc(F)cc5)cc4s3)cc(CCO)cc2n1 [Example 237, 4-fluoro-N-(2-((2-(7-(2-hydroxyethyl)-2-methoxyquinoxalin-5-yl)-4-methylbenzo[d]thiazol-6-yl)oxy)ethyl)benzenesulfonamide] |
| 1300 nM | COc1cnc2c(-c3nc4c(C)cc(OCCNS(=O)(=O)c5ccc(F)cc5)cc4s3)cc(CN)cc2n1 [Example 238, N-(2-((2-(7-(aminomethyl)-2-methoxyquinoxalin-5-yl)-4-methylbenzo[d]thiazol-6-yl)oxy)ethyl)-4-fluorobenzenesulfonamide] |
| 7.9 nM | COc1cnc2c(-c3nc4c(C)cc(OCCNS(=O)(=O)c5ccc(F)cc5)cc4s3)cc(C(C)O)cc2n1 (stereo not drawn) [Example 239, 4-fluoro-N-(2-((2-(7-(1-hydroxyethyl)-2-methoxyquinoxalin-5-yl)-4-methylbenzo[d]thiazol-6-yl)oxy)ethyl)benzenesulfonamide] |
| 72 nM | COc1cnc2c(-c3nc4c(C)cc(OCCNS(=O)(=O)c5ccc(F)cc5)cc4s3)cc(C(O)c3ccccc3)cc2n1 (stereo not drawn) [Example 240, 4-fluoro-N-(2-((2-(7-(hydroxy(phenyl)methyl)-2-methoxyquinoxalin-5-yl)-4-methylbenzo[d]thiazol-6-yl)oxy)ethyl)benzenesulfonamide] |
